Measurements as given in the supplement of paper PMC12420376.

Key:
KURAMOCHI = assay: drug sensitivity score (DSS2) on cancer cell count; higher = more sensitive; extreme values may be limits of the assay; conditions: 72 h
Method in brief: (§1)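 Ovarian cancer cells grown alone or 1:1 with lung or skin fibroblasts in direct co-culture were treated for 72 h on 384-well plates carrying 528 approved and investigational compounds at 5 concentrations. Fixed cells were stained for CK8/18 with Hoechst and imaged to count cancer cells. A drug sensitivity score was then derived in Breeze from logistic curve fits.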

OVCAR8 = assay: as above; conditions: 72 h
Method in brief: as §1

[1] = co-cultured fibroblast: BJHTERT
[2] = co-cultured fibroblast: none (monoculture)

SMILES | drug sensitivity score (KURAMOCHI; [1]) | drug sensitivity score (KURAMOCHI; co-cultured fibroblast: WI38) | drug sensitivity score (KURAMOCHI; [2]) | drug sensitivity score (OVCAR8; [1]) | drug sensitivity score (OVCAR8; co-cultured fibroblast: WI38) | drug sensitivity score (OVCAR8; [2])
Cc1cn(-c2cc(NC(=O)c3ccc(C)c(Nc4nccc(-c5cccnc5)n4)c3)cc(C(F)(F)F)c2)cn1 [Nilotinib] | 0 DSS | 8 DSS | 9.8 DSS | 0 DSS | 11 DSS | 3 DSS
CC1(C)NC(=O)N(c2ccc([N+](=O)[O-])c(C(F)(F)F)c2)C1=O [Nilutamide] | 0 DSS | 3.2 DSS | 14.5 DSS | 0 DSS | 0 DSS | 0 DSS
COC(=O)c1ccc2c(c1)NC(=O)/C2=C(\Nc1ccc(N(C)C(=O)CN2CCN(C)CC2)cc1)c1ccccc1 [Nintedanib] | 8.2 DSS | 2.7 DSS | 4.6 DSS | 9.8 DSS | 4.6 DSS | 7.9 DSS
NC(=O)c1cccc2cn(-c3ccc([C@@H]4CCCNC4)cc3)nc12 [Niraparib] | 5.8 DSS | 6.8 DSS | 5.1 DSS | 14.9 DSS | 8.1 DSS | 9 DSS
CC(O)c1cc(C(=O)N[C@@H](C)Cn2ccc(-c3ccc(C#N)c(Cl)c3)n2)n[nH]1 (some centres not stated) [ODM-201] | 1.3 DSS | 0 DSS | 3.7 DSS | 0.5 DSS | 0 DSS | 0 DSS
CC(=O)c1cnc2ccc(-c3cc(Cl)c(O)c(Cl)c3)nc2c1N[C@H]1CC[C@H](CN(C)C)CC1 [OTS167] | 14.9 DSS | 13.5 DSS | 11.7 DSS | 20.6 DSS | 16.1 DSS | 19.2 DSS
O=C(c1cc(Cc2n[nH]c(=O)c3ccccc23)ccc1F)N1CCN(C(=O)C2CC2)CC1 [Olaparib] | 4.6 DSS | 7.3 DSS | 11.4 DSS | 12.5 DSS | 6.9 DSS | 9 DSS
C=CC(=O)Nc1cccc(Oc2nc(Nc3ccc(N4CCN(C)CC4)cc3)nc3ccsc23)c1 [Olmutinib] | 2.1 DSS | 2.7 DSS | 0 DSS | 0 DSS | 0 DSS | 0 DSS
COC(=O)C[C@](O)(CCCC(C)(C)O)C(=O)O[C@@H]1C(OC)=C[C@]23CCCN2CCc2cc4c(cc2[C@H]13)OCO4 [Omacetaxine] | 23.8 DSS | 24.5 DSS | 30.6 DSS | 29.3 DSS | 30.1 DSS | 29.8 DSS
CC1(C)CC[C@]2(NC(=O)C(C)(F)F)CC[C@]3(C)[C@H](C(=O)C=C4[C@@]5(C)C=C(C#N)C(=O)C(C)(C)[C@@H]5CC[C@]43C)[C@@H]2C1 [Omaveloxolone] | 17.2 DSS | 17.8 DSS | 20.1 DSS | 7 DSS | 20 DSS | 21.5 DSS
COc1ncc(-c2ccc3nccc(-c4ccnnc4)c3c2)cc1NS(=O)(=O)c1ccc(F)cc1F [Omipalisib] | 17.1 DSS | 17.9 DSS | 12.1 DSS | 8.9 DSS | 6.5 DSS | 13 DSS
CC(C)c1cc(C(=O)N2Cc3ccc(CN4CCN(C)CC4)cc3C2)c(O)cc1O [Onalespib] | 13 DSS | 14.6 DSS | 14.9 DSS | 17.4 DSS | 18.5 DSS | 23.5 DSS
COC[C@H](NC(=O)c1cnc(C)s1)C(=O)N[C@@H](COC)C(=O)N[C@@H](Cc1ccccc1)C(=O)[C@@]1(C)CO1 [Oprozomib] | 15.7 DSS | 15.1 DSS | 12.6 DSS | 17.7 DSS | 12.7 DSS | 10.8 DSS
CNC(=O)c1ccc2cc([C@@]3(O)CCn4cncc43)ccc2c1 [Orteronel] | 0 DSS | 0 DSS | 0.5 DSS | 0 DSS | 0.3 DSS | 0 DSS
C=CC(=O)Nc1cc(Nc2nccc(-c3cn(C)c4ccccc34)n2)c(OC)cc1N(C)CCN(C)C [Osimertinib] | 10.7 DSS | 6.8 DSS | 10.7 DSS | 6.8 DSS | 0.6 DSS | 3.7 DSS
O=C(O)C(=O)O.[NH-][C@@H]1CCCC[C@H]1[NH-].[Pt+2] [Oxaliplatin] | 9.3 DSS | 16 DSS | 18.1 DSS | 13.9 DSS | 19.6 DSS | 18.2 DSS
C=CCc1cccc(/C=N/NC(=O)CN2CCN(Cc3ccccc3)CC2)c1O [PAC-1] | 2.7 DSS | 3.3 DSS | 4.9 DSS | 7.4 DSS | 1.5 DSS | 4.9 DSS
O=C(Nc1cccnc1)N1CCC(Cc2cccc(Oc3ccc(C(F)(F)F)cn3)c2)CC1 [PF-3845] | 0.5 DSS | 0 DSS | 0 DSS | 0 DSS | 0 DSS | 1.9 DSS
CN1CCN(c2cc(C(=O)Nc3ccc4c(c3)-c3c(c(C(N)=O)nn3-c3ccc(F)cc3)CC4)c(Cl)cn2)CC1 [PHA 408] | 5.8 DSS | 1.9 DSS | 1.6 DSS | 0.5 DSS | 8.6 DSS | 4.8 DSS
O=C(Nc1cc(Cl)cc2c1[nH]c1cnccc12)c1cccnc1 [PS-1145] | 0.6 DSS | 3.2 DSS | 2.1 DSS | 0 DSS | 0 DSS | 1.8 DSS
COc1cc(Br)c(Nc2nc(-c3c(C)nc4ncccn34)cs2)c(Br)c1 [PTC-209] | 2.4 DSS | 3.6 DSS | 7.9 DSS | 9.1 DSS | 3.1 DSS | 6.9 DSS
CC(=O)O[C@H]1C(=O)[C@@]2(C)[C@H]([C@H](OC(=O)c3ccccc3)[C@]3(O)C[C@H](OC(=O)[C@H](O)[C@@H](NC(=O)c4ccccc4)c4ccccc4)C(C)=C1C3(C)C)[C@]1(OC(C)=O)CO[C@@H]1C[C@@H]2O [Paclitaxel] | 23.2 DSS | 24.5 DSS | 16.1 DSS | 29.6 DSS | 30.9 DSS | 24 DSS
C1=N/C2=N/c3ccc(OCCN4CCCC4)c(c3)COC/C=C/COCc3cccc(c3)C(=C1)N2 [Pacritinib] | 8.2 DSS | 8.6 DSS | 4.4 DSS | 9.5 DSS | 5.6 DSS | 7.7 DSS
CC(=O)c1c(C)c2cnc(Nc3ccc(N4CCNCC4)cn3)nc2n(C2CCCC2)c1=O [Palbociclib] | 6.2 DSS | 7.5 DSS | 13.9 DSS | 6.6 DSS | 0.3 DSS | 3.9 DSS
COc1ccc(COc2cc3oc(=O)c4cc(C(C)O)ccc4c3cc2OC)cc1 (configuration not stated) [Palomid-529] | 0 DSS | 0 DSS | 0 DSS | 1.1 DSS | 1 DSS | 0 DSS
Cc1[nH]c2ccccc2c1CCNCc1ccc(/C=C/C(=O)NO)cc1 [Panobinostat] | 14.8 DSS | 19.4 DSS | 21.8 DSS | 28.1 DSS | 20.1 DSS | 26.4 DSS

SMILES | drug sensitivity score (KURAMOCHI; [1]) | drug sensitivity score (KURAMOCHI; co-cultured fibroblast: WI38) | drug sensitivity score (KURAMOCHI; [2]) | drug sensitivity score (OVCAR8; [1]) | drug sensitivity score (OVCAR8; co-cultured fibroblast: WI38) | drug sensitivity score (OVCAR8; [2])
Cc1ccc(Nc2nccc(N(C)c3ccc4c(C)n(C)nc4c3)n2)cc1S(N)(=O)=O [Pazopanib] | 2 DSS | 2 DSS | 5.9 DSS | 0 DSS | 3.5 DSS | 0 DSS
Nc1nc2[nH]cc(CCc3ccc(C(=O)N[C@@H](CCC(=O)O)C(=O)O)cc3)c2c(=O)[nH]1 [Pemetrexed] | 10.1 DSS | 16 DSS | 13.6 DSS | 16.4 DSS | 19.3 DSS | 25.5 DSS
OC[C@H]1O[C@@H](n2cnc3c2N=CNC[C@H]3O)C[C@@H]1O [Pentostatin] | 0 DSS | 0 DSS | 0 DSS | 0 DSS | 2.8 DSS | 0 DSS
CCCCCCCCCCCCCCCCCCOP(=O)([O-])OC1CC[N+](C)(C)CC1 [Perifosine] | 0 DSS | 0 DSS | 0 DSS | 0 DSS | 0 DSS | 0 DSS
NS(=O)(=O)OC[C@@H]1C[C@@H](n2ccc3c(N[C@H]4CCc5ccccc54)ncnc32)C[C@@H]1O [Pevonedistat] | 14 DSS | 19.1 DSS | 18.2 DSS | 20.9 DSS | 12.5 DSS | 26.4 DSS
FC(F)(F)c1ccc(CNc2ccc(Cc3c[nH]c4ncc(Cl)cc34)cn2)cn1 [Pexidartinib] | 0 DSS | 1.4 DSS | 12.1 DSS | 0 DSS | 0.1 DSS | 0.7 DSS
CS(=O)(=O)N1CCN(Cc2cc3nc(-c4cccc5[nH]ncc45)nc(N4CCOCC4)c3s2)CC1 [Pictilisib] | 15 DSS | 12.1 DSS | 18.2 DSS | 6.7 DSS | 5.4 DSS | 7.9 DSS
CC[C@@H]1C(=O)OC[C@@H]1Cc1cncn1C [Pilocarpine] | 0 DSS | 0 DSS | 0 DSS | 0 DSS | 19.4 DSS | 0 DSS
CC(C)N(C[C@H]1O[C@@H](n2cnc3c(N)ncnc32)[C@H](O)[C@@H]1O)[C@H]1C[C@@H](CCc2nc3cc(C(C)(C)C)ccc3[nH]2)C1 [Pinometostat] | 0 DSS | 0 DSS | 0 DSS | 0 DSS | 0 DSS | 0 DSS
Cc1ccc(=O)n(-c2ccccc2)c1 [Pirfenidone] | 1.8 DSS | 0 DSS | 0 DSS | 0 DSS | 0.7 DSS | 0 DSS
NCCNc1ccc(NCCN)c2c1C(=O)c1ccncc1C2=O [Pixantrone] | 0 DSS | 0.1 DSS | 9.4 DSS | 1.7 DSS | 0 DSS | 0 DSS
c1cc(CN2CCCNCCNCCCNCC2)ccc1CN1CCCNCCNCCCNCC1 [Plerixafor] | 0 DSS | 0 DSS | 0.6 DSS | 0.5 DSS | 0 DSS | 0.3 DSS
Nc1cccc2c1C(=O)N(C1CCC(=O)NC1=O)C2=O (configuration not stated) [Pomalidomide] | 0 DSS | 0 DSS | 0 DSS | 0 DSS | 0 DSS | 0 DSS
Cc1ccc(C(=O)Nc2ccc(CN3CCN(C)CC3)c(C(F)(F)F)c2)cc1C#Cc1cnc2cccnn12 [Ponatinib] | 8.3 DSS | 6.3 DSS | 21.9 DSS | 3.5 DSS | 6.5 DSS | 3.1 DSS
C=CC(=O)N1CCC(Oc2cc3c(Nc4ccc(Cl)c(Cl)c4F)ncnc3cc2OC)CC1 [Poziotinib] | 4.4 DSS | 7.9 DSS | 3 DSS | 4 DSS | 0.2 DSS | 0.3 DSS
CCCCc1nc2cc(/C=C/C(=O)NO)ccc2n1CCN(CC)CC [Pracinostat] | 15.7 DSS | 20.4 DSS | 19.8 DSS | 23.1 DSS | 20.4 DSS | 25.5 DSS
CC[C@H](C)C(=O)O[C@H]1C[C@H](O)C=C2C=C[C@H](C)[C@H](CC[C@@H](O)C[C@@H](O)CC(=O)O)[C@H]21 [Pravastatin] | 0 DSS | 0 DSS | 0 DSS | 0 DSS | 1.9 DSS | 0 DSS
C[C@]12C=CC(=O)C=C1CC[C@@H]1[C@@H]2[C@@H](O)C[C@@]2(C)[C@H]1CC[C@]2(O)C(=O)CO [Prednisolone] | 0 DSS | 0 DSS | 0 DSS | 0.3 DSS | 0 DSS | 0 DSS
COc1cccc(OCCCN)c1-c1cc(Nc2cnc(C#N)cn2)n[nH]1 [Prexasertib] | 25.7 DSS | 23.7 DSS | 30.7 DSS | 35 DSS | 33.7 DSS | 29.8 DSS
Cn1cc(CNCC2CCN(c3ncc(C(=O)NO)cn3)CC2)c2ccccc21 [Quisinostat] | 15 DSS | 17 DSS | 18.9 DSS | 22.6 DSS | 15.3 DSS | 22.4 DSS
CC(C)(C)c1cc(NC(=O)Nc2ccc(-c3cn4c(n3)sc3cc(OCCN5CCOCC5)ccc34)cc2)no1 [Quizartinib] | 0 DSS | 0 DSS | 0 DSS | 3.6 DSS | 6.2 DSS | 0 DSS
Nc1cc(F)ccc1NC(=O)/C=C/c1cnn(C/C=C/c2ccccc2)c1 [RGFP966] | 3.9 DSS | 6 DSS | 4 DSS | 1.6 DSS | 0.6 DSS | 4.4 DSS
COC(=O)c1ccc([C@H]2c3[nH]c4ccccc4c3C[C@H](C(=O)OC)N2C(=O)CCl)cc1 [RSL3] | 0 DSS | 0 DSS | 2.5 DSS | 0 DSS | 0 DSS | 0 DSS
Cc1cnc(NC(=O)Nc2cc(Br)c(C)cc2OC[C@@H]2CNCCO2)cn1 [Rabusertib] | 0.4 DSS | 0 DSS | 0 DSS | 0.2 DSS | 0 DSS | 0 DSS
Cc1cn(-c2cc(NC(=O)c3ccc(C)c(Nc4nccc(-c5cnccn5)n4)c3)cc(C(F)(F)F)c2)cn1 [Radotinib] | 0 DSS | 0 DSS | 0 DSS | 0 DSS | 6.2 DSS | 1.2 DSS
CC(C)(C)Cn1c(N)nc2ccc(-c3[nH]c(C(C)(C)C)nc3-c3ccc(F)cc3)nc21 [Ralimetinib] | 10.8 DSS | 1.7 DSS | 0 DSS | 0 DSS | 0 DSS | 2.5 DSS
